According to PMC12102032, “Chemoproteomics unveils Sofalcone targeting ribosomal proteins to inhibit protein synthesis in Staphylococcus aureus” (Molecular Biomedicine, 2025):

What was measured:
[1] = target: T1, 50S ribosomal protein rplB (Staphylococcus aureus, UniProt P60430); test: microscale thermophoresis; also thermal shift of pure protein and competition with Sof-P labeling; type: binding
T1 construct: purified recombinant S. aureus rplB protein (His-Tag labeled)

[2] = target: T2, 50S ribosomal protein rplB (Staphylococcus aureus, UniProt P60430); test: in-gel fluorescence covalent labeling of purified recombinant protein (click chemistry), competed by Sof and IAA; type: binding
T2 construct: purified recombinant rplB protein
T2 sequence (P60430 1-277): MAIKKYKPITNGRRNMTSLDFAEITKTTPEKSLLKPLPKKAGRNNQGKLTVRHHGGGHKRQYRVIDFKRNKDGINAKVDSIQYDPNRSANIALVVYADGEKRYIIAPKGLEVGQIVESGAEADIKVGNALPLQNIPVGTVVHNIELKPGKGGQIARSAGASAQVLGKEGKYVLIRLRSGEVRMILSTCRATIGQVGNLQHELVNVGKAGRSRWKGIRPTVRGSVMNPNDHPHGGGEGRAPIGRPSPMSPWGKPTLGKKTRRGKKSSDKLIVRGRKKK

Structure (SMILES) | Kd [1] | in-gel fluorescence covalent labeling of purified recombinant protein (click che) [2]
CC(C)=CCOc1ccc(/C=C/C(=O)c2ccc(OCC=C(C)C)cc2OCC(=O)O)cc1 [Sof, 2′-carboxymethoxy-4,4′-bis(3-methyl-2-butenyloxy) chalcone] | 1.27 µM | 
C#CCNC(=O)COc1cc(OCC=C(C)C)ccc1C(=O)/C=C/c1ccc(OCC=C(C)C)cc1 [Sof-P] |  | Sof-P labeling of recombinant rplB was concentration-dependent and was effectively competed by excess Sof or iodoacetamide (IAA)
